Each structure is given as a SMILES string. pEC50: −log10 of the molar value.

The text below walks through data of ChEMBL document CHEMBL5729275 (2022).

The experiment is described as follows: RSV-A Assay : Hep-2 cells, (originally derived from tumors grown in irradiated-cortisonised weanling rats that had been injected with epidermoid carcinoma tissue from a person's larynx, but later found to be indistinguishable from HeLa cells by PCR DNA analysis), were used for the culturing of genotype A, “Long” strain RSV. Flasks were inoculated with RSV and viral stocks were collected once cytopathic effect (CPE) was greater than 90%. Viral stocks in 25% sucrose media were snap frozen using liquid nitrogen to increase viral stability. Viral stock titers were quantified by tissue culture infectious dose 50% (TCID50) using 8,000 cells per well and 3-fold viral dilutions across a 96-well plate, cultured for 4 days. Viral stock titers were also quantified by a plaque forming unit assay, as described elsewhere.Following extensive parameter testing, the final assay is run as follows: Hep-2 cells are seeded into the inner 60 wells of a 96-well plate at 8,000 cells per well in a volume of 50 μL using Growth Media (DMEM without phenol red, 1% L-Glut, 1% Penn/Strep, 1% nonessential amino acids, 10% heat-inactivated FBS). 2-fold serial dilutions of control and test compounds are added to the wells in duplicate in a total volume of 25 μL. Viral stock is then added to the wells at a multiplicity of infection (MOI) of 0.1 in a volume of 25 μL, bringing the total volume of each well to 100 μL. The MOI is calculated using the PFU/mL, or TCID50 if unavailable. Each 96-well plate has a control column of 6 wells with cells and virus but no compound (negative control, max CPE), a column with cells but no compound or virus (positive control, minimum CPE), and a column with no cells or virus or compound (background plate/reagent control). The control wells with cells but no virus are given an additional […], of growth media containing an equal quantity of sucrose as those wells receiving the viral stock in order to keep consistent in media and volume conditions. The outer wells of the plate are filled with 125 μL of moat media (DMEM, 1% Penn/Strep) to act as a thermal and evaporative moat around the test wells. Following a 5-day incubation period, the plates are read using ATPlite (50 uL added per well), which quantifies the amount of ATP (a measure of cell health) present in each well. Assay plates are read using the Envision luminometer.

As for `COc1cc(C(=O)NC[C@](O)(c2cc3c(c(-c4ccc(F)cc4)n2)OC[C@@]3(N)C(F)(F)F)C2COC2)ccc1OC1CC1`, the pEC50 is under 6.70.
Regarding `COc1ccc(C(=O)NC[C@](O)(c2cc3c(c(-c4ccc(F)cc4)n2)OC[C@@]3(N)C(F)(F)F)C(F)(F)F)cc1OC`, the pEC50 is under 6.70.
As for `C[C@](O)(CNC(=O)c1cc(OC2CC2)c2ncccc2c1)c1cc2c(c(-c3ccc(F)cc3)n1)OC[C@@]2(N)C(F)(F)F`, the pEC50 was over 6.70.
Under `C[C@](O)(CNC(=O)c1ccc(OC2CC2)c(OC2CC2)c1)c1cc2c(c(-c3ccc(F)c(Cl)c3)n1)OC[C@@]2(N)C(F)(F)F` stands over 6.70; under `COc1cc(C(=O)NC[C@](O)(c2cc3c(c(-c4ccc(F)c(F)c4)n2)OC[C@@]3(N)C(F)(F)F)C2CC2)ccc1OC1CC1`, over 6.70; under `C[C@](O)(CNC(=O)c1ccc(OC2CC2)c(-c2cccnc2)c1)c1cc2c(c(-c3ccc(F)cc3)n1)OC[C@@]2(N)C(F)(F)F`, over 6.70.
With `COc1cc(C(=O)NC[C@](C)(O)c2cc3c(c(-c4ccc(F)c(Cl)c4)n2)OC[C@@]3(N)C(F)(F)F)ccc1OC1CC1`, the pEC50 was over 6.70.
In the case of `COc1ccc2nc(C(=O)NC[C@](O)(c3cc4c(c(-c5ccc(F)cc5)n3)OC[C@@]4(N)C(F)(F)F)C(F)(F)F)cc(OC)c2c1`, the pEC50 was under 6.70.
Under `COc1cc(C(=O)NC[C@](O)(c2cc3c(c(-c4ccc(F)cc4)n2)OC[C@@]3(N)C(F)(F)F)C(F)(F)F)cc(F)c1OC1CC1` stands under 6.70; under `CC(C)(C)S(=O)(=O)N[C@@]1(C(F)(F)F)COc2c1cc([C@@](C)(O)CNC(=O)c1cc(OC3CC3)c3ncccc3c1)nc2-c1ccc(F)cc1`, under 6.70; under `COc1cc(C(=O)NC[C@@](O)(c2cc3c(c(-c4ccc(F)cc4)n2)OC[C@@]3(N)C(F)(F)F)C(F)(F)F)ccc1OC1CC1`, under 6.70.
